The values below come from US12247015B2, “3-amino-4H-benzo[e][1,2,4]thiadiazine 1,1-dioxide derivatives as inhibitors of MRGX2” (Solent Therapeutics, LLC, priority 2019, dated 2025).

Chain of hMRGX2 (CHO-K1 cells overexpressing MRGX2) (Q96LB1 whole entry): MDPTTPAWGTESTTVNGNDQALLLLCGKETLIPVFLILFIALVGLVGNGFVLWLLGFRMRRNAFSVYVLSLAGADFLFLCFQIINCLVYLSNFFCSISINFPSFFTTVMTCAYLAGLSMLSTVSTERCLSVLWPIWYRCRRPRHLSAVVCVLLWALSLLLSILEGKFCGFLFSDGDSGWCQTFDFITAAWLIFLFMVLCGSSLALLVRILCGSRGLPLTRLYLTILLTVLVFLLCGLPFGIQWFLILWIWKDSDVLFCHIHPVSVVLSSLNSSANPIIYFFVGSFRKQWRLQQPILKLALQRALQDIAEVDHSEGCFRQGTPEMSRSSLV

This assay concerns the target hMRGX2 (CHO-K1 cells overexpressing MRGX2) (Homo sapiens (Human), UniProt Q96LB1). The assay can be described thus: In vitro inhibition (EC50) of intracellular calcium flux, FLIPR Tetra, substance P stimulation. It is filed as cell-based. The settings on record: stimulated with MRGX2 ligand substance P, FLIPR Calcium 5, read-out: hMRGX2 Cellular Potency (pEC50) (converted). The method, then:
In Vitro Inhibition (EC50) of Intracellular Calcium Flux
The release of intracellular calcium following stimulation of cells with substance P in the presence or absence of inhibitor compounds was measured using the FLIPR Tetra® system. CHO-K1 cells overexpressing MRGX2 were seeded into 384-well plates (Black clear bottom, TC-treated, Fisher #07-200-655) and incubated overnight to allow for cell attachment. Media was removed, and 1× loading buffer (FLIPR® Calcium 5 assay solution, Molecular Devices, per manufacturer specifications) was added. The plates were incubated at 37° C. for 30 minutes. Test compounds were added to cells (11-point dose response, 10 µM maximum concentration) and fluorescence measured (120 seconds, in real time) using the FLIPR Tetra® system. Immediately following, MRGX2 ligand substance P was added at a final concentration of 1 µM and fluorescence measured (120 seconds, in real time) using the FLIPR Tetra® system. The data for the examples are reported as pEC50.
For orientation: A change in cytosolic calcium serves as a functional read-out for many receptors and channels.
As for `O=S1(=O)N=C(NCC2CCC2)Nc2c(-c3cccc(F)c3Cl)cccc21` [Example 17, 5-(2-chloro-3-fluorophenyl)-3-((cyclobutylmethyl)amino)-4H-benzo[e][1,2,4]thiadiazine 1,1-dioxide], the EC50 is 20.7 nM.
In the case of `COc1cccc(CNC2=NS(=O)(=O)c3cccc(-c4cccc(F)c4Cl)c3N2)n1` [Example 18, 5-(2-chloro-3-fluorophenyl)-3-(((6-methoxypyridin-2-yl)methyl)amino)-4H-benzo[e][1,2,4]thiadiazine 1,1-dioxide] it was 21.3 nM.
The result for `COc1cccc(CNC2=NS(=O)(=O)c3cccc(-c4cccc(F)c4F)c3N2)n1` [Example 19, 5-(2,3-difluorophenyl)-3-(((6-methoxypyridin-2-yl)methyl)amino)-4H-benzo[e][1,2,4]thiadiazine 1,1-dioxide] reads 23.4 nM; that for `Cn1cccc(CNC2=NS(=O)(=O)c3cccc(-c4cccc(F)c4F)c3N2)c1=O` [Example 20, 3-(((5-(2,3-difluorophenyl)-1,1-dioxido-4H-benzo[e][1,2,4]thiadiazin-3-yl)amino)methyl)-1-methylpyridin-2(1H)-one], 857 nM; that for `O=S1(=O)N=C(NCCF)Nc2c(-c3cccc(F)c3F)cccc21` [Example 21, 5-(2,3-difluorophenyl)-3-((2-fluoroethyl)amino)-4H-benzo[e][1,2,4]thiadiazine 1,1-dioxide], 738 nM.
In the case of `O=S1(=O)N=C(NCC2CCC2)Nc2c(-c3cccc(F)c3F)cccc21` [Example 22, 3-((cyclobutylmethyl)amino)-5-(2,3-difluorophenyl)-4H-benzo[e][1,2,4]thiadiazine 1,1-dioxide] it was 80.5 nM; in that of `CO[C@@H](C)CNC1=NS(=O)(=O)c2cccc(-c3cccc(F)c3F)c2N1` [Example 25, (S)-5-(2,3-difluorophenyl)-3-((2-methoxypropyl)amino)-4H-benzo[e][1,2,4]thiadiazine 1,1-dioxide], 2750 nM; in that of `CNC1=NS(=O)(=O)c2cccc(-c3cccc(F)c3F)c2N1` [Example 26, 5-(2,3-difluorophenyl)-3-(methylamino)-4H-benzo[e][1,2,4]thiadiazine 1,1-dioxide], 389 nM.
With `O=S1(=O)N=C(NCc2ncco2)Nc2c(-c3cccc(F)c3F)cccc21` [Example 27, 5-(2,3-difluorophenyl)-3-((oxazol-2-ylmethyl)amino)-4H-benzo[e][1,2,4]thiadiazine 1,1-dioxide], the EC50 is 344 nM.
The result for `O=S1(=O)N=C(NCC2CC2)Nc2c(-c3cccc(F)c3Cl)cccc21` [Example 29, 5-(2-chloro-3-fluorophenyl)-3-((cyclopropylmethyl)amino)-4H-benzo[e][1,2,4]thiadiazine 1,1-dioxide] reads 26.8 nM; that for `Cc1coc(CNC2=NS(=O)(=O)c3cccc(-c4cccc(F)c4Cl)c3N2)n1` [Example 30, 5-(2-chloro-3-fluorophenyl)-3-(((4-methyloxazol-2-yl)methyl)amino)-4H-benzo[e][1,2,4]thiadiazine 1,1-dioxide], 28.6 nM.
With `O=S1(=O)N=C(NCc2ccccn2)Nc2c(-c3cccc(F)c3Cl)cccc21` [Example 31, 5-(2-chloro-3-fluorophenyl)-3-((pyridin-2-ylmethyl)amino)-4H-benzo[e][1,2,4]thiadiazine 1,1-dioxide], the EC50 was 29.9 nM.
The result for `COCCNC1=NS(=O)(=O)c2cccc(-c3cc(F)cc(F)c3Cl)c2N1` [Example 32, 5-(2-chloro-3,5-difluorophenyl)-3-((2-methoxyethyl)amino)-4H-benzo[e][1,2,4]thiadiazine 1,1-dioxide] reads 35.7 nM.
The result for `COC(C)CNC1=NS(=O)(=O)c2cccc(-c3cccc(F)c3Cl)c2N1` (centres unmarked) [Example 33, 5-(2-chloro-3-fluorophenyl)-3-((2-methoxypropyl)amino)-4H-benzo[e][1,2,4]thiadiazine 1,1-dioxide] reads 38.2 nM; that for `COCCNC1=NS(=O)(=O)c2cccc(-c3ccnc(F)c3Cl)c2N1` [Example 36, 5-(3-chloro-2-fluoropyridin-4-yl)-3-((2-methoxyethyl)amino)-4H-benzo[e][1,2,4]thiadiazine 1,1-dioxide], 50.4 nM; that for `COCCNC1=NS(=O)(=O)c2cccc(-c3cccc(F)c3F)c2N1` [Example 37, 5-(2,3-difluorophenyl)-3-((2-methoxyethyl)amino)-4H-benzo[e][1,2,4]thiadiazine 1,1-dioxide], 394 nM.
In the case of `Cc1cnc(CNC2=NS(=O)(=O)c3cccc(-c4cccc(F)c4Cl)c3N2)o1` [Example 38, 5-(2-chloro-3-fluorophenyl)-3-(((5-methyloxazol-2-yl)methyl)amino)-4H-benzo[e][1,2,4]thiadiazine 1,1-dioxide] it was 51.9 nM; in that of `COC(C)CNC1=NS(=O)(=O)c2cccc(-c3ccccc3Cl)c2N1` (centres unmarked) [Example 40, 5-(2-chlorophenyl)-3-((2-methoxypropyl)amino)-4H-benzo[e][1,2,4]thiadiazine 1,1-dioxide], 76.2 nM; in that of `O=S1(=O)N=C(NCc2ccccn2)Nc2c(-c3ccccc3Cl)cccc21` [Example 41, 5-(2-chlorophenyl)-3-((pyridin-2-ylmethyl)amino)-4H-benzo[e][1,2,4]thiadiazine 1,1-dioxide], 26.4 nM.
For the molecule `CCNC1=NS(=O)(=O)c2cccc(-c3ccccc3Cl)c2N1` [Example 42, 5-(2-chlorophenyl)-3-(ethylamino)-4H-benzo[e][1,2,4]thiadiazine 1,1-dioxide], the EC50 was 77.1 nM.
Regarding `O=S1(=O)N=C(NCC(F)F)Nc2c(-c3ccccc3Cl)cccc21` [Example 44, 5-(2-chlorophenyl)-3-((2,2-difluoroethyl)amino)-4H-benzo[e][1,2,4]thiadiazine 1,1-dioxide], the EC50 is 186 nM.
In the case of `O=S1(=O)N=C(NCCF)Nc2c(-c3ccccc3Cl)cccc21` [Example 45, 5-(2-chlorophenyl)-3-((2-fluoroethyl)amino)-4H-benzo[e][1,2,4]thiadiazine 1,1-dioxide] it was 305 nM; in that of `Cn1cccc(CNC2=NS(=O)(=O)c3cccc(-c4cccc(F)c4Cl)c3N2)c1=O` [Example 46, 3-(((5-(2-chloro-3-fluorophenyl)-1,1-dioxido-4H-benzo[e][1,2,4]thiadiazin-3-yl)amino)methyl)-1-methylpyridin-2(1H)-one], 87.9 nM.
On to `CO[C@H](C)CNC1=NS(=O)(=O)c2cccc(-c3cccc(F)c3Cl)c2N1` [Example 47, (R)-5-(2-chloro-3-fluorophenyl)-3-((2-methoxypropyl)amino)-4H-benzo[e][1,2,4]thiadiazine 1,1-dioxide], for which the EC50 was 93.3 nM.
The result for `O=S1(=O)N=C(NCc2ncco2)Nc2c(-c3ccnc(F)c3Cl)cccc21` [Example 48, 5-(3-chloro-2-fluoropyridin-4-yl)-3-((oxazol-2-ylmethyl)amino)-4H-benzo[e][1,2,4]thiadiazine 1,1-dioxide] reads 36 nM.
The result for `O=S1(=O)N=C(NCc2nccs2)Nc2c(-c3ccnc(F)c3Cl)cccc21` [Example 49, 5-(3-chloro-2-fluoropyridin-4-yl)-3-((thiazol-2-ylmethyl)amino)-4H-benzo[e][1,2,4]thiadiazine 1,1-dioxide] reads 24.2 nM.
